In patent publication US5543415A, “Antidepressants” (Kyowa Hakko Kogyo Co., Ltd., priority 1992, dated 1996):

What was measured:
[1] = test system: clonidine-induced aggressive behavior; assay: Effect on Clonidine-Induced Aggressive Behavior (number of biting attacks during 30 minutes); format: in vivo, male ddY mice; conditions: 10 mg/kg, po; for Number of the Biting Attacks (mean ± S.E.M.), Test Compound-Treated Group: 60 min before clonidine 20 mg/kg ip, 30 min count; for response vs control in vivo at 10 mg/kg: Mus musculus, read-out: Number of the Attacks of Test Compound-Treated Group/Number of the Attacks of Control Group
Experimental: The effect of a test compound on the aggressive behavior induced by intraperitoneal administration of clonidine was investigated. […] The experiment was performed by using several groups of male ddY mice (weighing 20 to 25 g, Japan SLC), each group consisting of two mice. The test compound was suspended in injectable distilled water (Otsuka Pharmaceutical Co., Ltd.) containing Tween 80 [polyoxyethylene (20) sorbitan monooleate]. Clonidine hydrochloride (Sigma Co.) was dissolved in physiological saline solution (Otsuka Pharmaceutical Co., Ltd.). The test compound suspension and the control suspension were orally administered to separate groups of the mice (0.1 ml per 10 g of body weight). Sixty minutes after the oral administration of the test compound, clonidine hydrochloride (20 mg/kg) was intraperitoneally injected. The number of biting attacks during 30 minutes after clonidine treatment was counted. The effect of the compound was evaluated by comparing the average number of biting attacks of the test compound-administered groups with that of control groups (Statistical comparison: Student's t-test).

ddY-strain male mice = assay: Acute Toxicity Test (minimum lethal dose, oral); format: in vivo; conditions: seven days after administration
Experimental: Test compounds were orally administered to groups of ddY-strain male mice weighing 20±1 g, each group consisting of three mice. Seven days after the administration, minimum lethal dose (MLD) of each compound was determined by observing the mortality.

CCn1c(=O)c2c(nc(/C=C/c3cc(OC)c4c(c3)OCO4)n2C)n(CC)c1=O [Compound 179, (E)-1,3-Diethyl-8-(3-methoxy-4,5-methylenedioxystyryl)7-methylxanthine]
Number of the Biting Attacks (mean ± S.E.M.), Test Compound-Treated Group [1]: 67.7 ± 16.08
MLD (minimum lethal dose) (ddY-strain male mice): > 100 mg/kg

CCn1c(=O)c2c(nc(/C=C/c3cccc(F)c3C)n2C)n(CC)c1=O [Compound 181, (E)-1,3-Diethyl-8-(3-fluoro-2-methylstyryl)-7-methylxanthine]
Number of the Biting Attacks (mean ± S.E.M.), Test Compound-Treated Group [1]: 49.5 ± 9.09
response vs control in vivo at 10 mg/kg [1]: 800%
MLD (minimum lethal dose) (ddY-strain male mice): > 100 mg/kg

CCn1c(=O)c2c(nc(/C=C/c3ccc(O)cc3)n2C)n(CC)c1=O [Compound 184, (E)-1,3-Diethyl-8-(4-hydroxystyryl)-7-methylxanthine]
Number of the Biting Attacks (mean ± S.E.M.), Test Compound-Treated Group [1]: 77.1 ± 11.47
MLD (minimum lethal dose) (ddY-strain male mice): > 100 mg/kg

CCn1c(=O)c2c(nc(/C=C/c3ccc(OCc4ccccc4)cc3)n2C)n(CC)c1=O [Compound 185, (E)-8-(4-Benzyloxystyryl)-1,3-diethyl-7-methylxanthine]
Number of the Biting Attacks (mean ± S.E.M.), Test Compound-Treated Group [1]: 46.9 ± 14.00
response vs control in vivo at 10 mg/kg [1]: 620%
MLD (minimum lethal dose) (ddY-strain male mice): > 100 mg/kg
